Like-named read-outs stand apart in the source and are kept apart here. Positions of bridges follow the written chain, without caps; N, C: chain ends. Residues, ends and D or L forms follow the SMILES beside them. Groups on a side chain read outwards from the residue. *: point of attachment. C20 diacid = O=C(O)CCCCCCCCCCCCCCCCCCC(=O)*; C18 diacid = O=C(O)CCCCCCCCCCCCCCCCC(=O)*; AEEA = NCCOCCOCC(=O)O

The target of the experiment is T1, Amylin 3(a) receptor (human calcitonin receptor (CTa) with RAMP-3) (Homo sapiens, UniProt O60896+P30988).
T1 construct: expressed in transfected cells; host or cells: BHK570 (baby hamster kidney) cells, stably transfected, with CRE-luciferase reporter
T1 sequence (O60896 24-148): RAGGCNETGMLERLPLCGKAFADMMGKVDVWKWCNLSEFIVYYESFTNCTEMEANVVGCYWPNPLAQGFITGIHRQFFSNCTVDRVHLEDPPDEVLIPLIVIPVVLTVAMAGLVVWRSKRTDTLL
T1 sequence (P30988 25-474): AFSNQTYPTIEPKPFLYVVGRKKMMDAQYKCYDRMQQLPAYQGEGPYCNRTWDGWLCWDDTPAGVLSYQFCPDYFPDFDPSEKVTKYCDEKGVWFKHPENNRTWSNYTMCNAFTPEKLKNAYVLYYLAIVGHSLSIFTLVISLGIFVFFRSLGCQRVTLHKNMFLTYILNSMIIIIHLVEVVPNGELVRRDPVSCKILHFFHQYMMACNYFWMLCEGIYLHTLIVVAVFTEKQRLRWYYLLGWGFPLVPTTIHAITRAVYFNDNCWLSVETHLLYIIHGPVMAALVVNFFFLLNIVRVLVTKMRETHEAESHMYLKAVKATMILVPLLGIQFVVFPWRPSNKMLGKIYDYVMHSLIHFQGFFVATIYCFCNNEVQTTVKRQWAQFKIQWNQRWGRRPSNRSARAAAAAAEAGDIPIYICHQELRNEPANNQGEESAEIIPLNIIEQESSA
The experiment in a line: Amylin luciferase assay (CRE-luciferase reporter in BHK Amylin 3(a)//CRE-luc cells). Type of experiment: cell-based. The text has this: It has previously been published (Poyner D R et al 2002, Pharmacological Reviews 54(2) 233-246) that activation of Amylin receptors (coexpression of Calcitonin receptor and receptor activity modifying peptides RAMPs) by Amylin leads to an increase in the intracellular concentration of cAMP. Consequently, transcription is activated at promotors containing multiple copies of the cAMP response element (CRE). It is thus possible to measure Amylin activity by use of a CRE luciferase reporter gene introduced into BHK cells also expressing an Amylin receptor.
2. Construction of an Amylin 3(a)/CRE-luc Cell Line
A BHK570 cell line stably transfected with the human calcitonin receptor (CTa) and a CRE-responsive luciferase reportergene. The cell line was further transfected with RAMP-3, using standard methods. This turns the Calcitonin receptor into an Amylin 3(a) receptor. Methotrexate, Neomycin, and Hygromycin are selection markers for luciferase, the Calcitonin receptor, and RAMP-3, respectively.
3. Amylin Luciferase Assay
To perform activity assays, BHK Amylin 3(a)//CRE-luc cells were seeded in white 96 well culture plates at a density of about 20.000 cells/well. The cells were in 100 μl growth medium (DMEM with 10% FBS, 1% Pen/Strep, 1 mM Na-pyruvate, 250 nM Methotrexate, 500 μg/ml Neomycin, and 400 μg/ml Hygromycin). After incubation overnight at 37° C. and 5% CO2, the growth medium was replaced by 50 μl/well assay medium (DMEM (without phenol red), Glumamax™, 10% FBS, and 10 mM Hepes, pH 7,4). Further, 50 μl/well of standard or sample in assay buffer were added. After 4 hours incubation at 37° C. and 5% CO2, the assay medium with standard or sample were removed and replaced by 100 μl/well PBS. Further, 100 μl/well LucLite™ was added. The plates were sealed and incubated at room temperature for 30 minutes. Finally, luminescence was measured on a TopCounter (Packard) in SPC (single photon counting) mode.
A general note: Reporter assays use an easily measured gene product as a stand-in for the process of interest.

[1] abbreviates: BHK570 cells with human calcitonin receptor (CTa), RAMP-3 and CRE-luciferase reporter, 4 hours incubation, read-out: Potency luciferase assay.

As for `CC[C@H](C)[C@H](NC(=O)[C@@H]1CCCN1C(=O)CNC(=O)[C@H](Cc1ccccc1)NC(=O)[C@H](CC(N)=O)NC(=O)[C@H](CC(N)=O)NC(=O)[C@H](CO)NC(=O)[C@H](CO)NC(=O)[C@H](Cc1c[nH]cn1)NC(=O)[C@@H](NC(=O)[C@H](CC(C)C)NC(=O)[C@H](Cc1ccccc1)NC(=O)[C@H](CC(N)=O)NC(=O)[C@H](C)NC(=O)[C@H](CC(C)C)NC(=O)[C@H](CCCNC(=N)N)NC(=O)[C@H](CCC(N)=O)NC(=O)[C@@H](NC(=O)[C@H](C)NC(=O)[C@@H]1CSSC[C@H](NC(=O)[C@@H](N)CCCCN)C(=O)N[C@@H](CCCCNC(=O)CCCCCCCCCCCCCCCCC(=O)O)C(=O)N[C@@H]([C@@H](C)O)C(=O)N[C@@H](C)C(=O)N[C@@H]([C@@H](C)O)C(=O)N1)[C@@H](C)O)C(C)C)C(=O)N[C@@H](CC(C)C)C(=O)N1CCC[C@H]1C(=O)N1CCC[C@H]1C(=O)N[C@H](C(=O)N[C@@H](CC(N)=O)C(=O)N[C@H](C(=O)NCC(=O)N[C@@H](CO)C(=O)N[C@@H](CC(N)=O)C(=O)N[C@H](C(=O)N[C@@H](Cc1ccc(O)cc1)C(N)=O)[C@@H](C)O)C(C)C)[C@@H](C)O` [Example 2, N-epsilon3-(17-carboxyheptadecanoyl)-[Lys3]-pramlintide (1-37)] (H-KCK(C18 diacid)TATCATQRLANFLVHSSNNFGPILPPTNVGSNTY-NH2; disulfide 2-7; N-terminus and C-terminus assumed), the EC50 under setting [1] came out at 0.05 nM.
Consider `CC[C@H](C)[C@H](NC(=O)[C@@H]1CCCN1C(=O)CNC(=O)[C@H](Cc1ccccc1)NC(=O)[C@H](CC(N)=O)NC(=O)[C@H](CC(N)=O)NC(=O)[C@H](CO)NC(=O)[C@H](CO)NC(=O)[C@H](Cc1c[nH]cn1)NC(=O)[C@@H](NC(=O)[C@H](CC(C)C)NC(=O)[C@H](Cc1ccccc1)NC(=O)[C@H](CC(N)=O)NC(=O)[C@H](C)NC(=O)[C@H](CC(C)C)NC(=O)[C@H](CCCNC(=N)N)NC(=O)[C@H](CCC(N)=O)NC(=O)[C@@H](NC(=O)[C@H](C)NC(=O)[C@@H]1CSSC[C@H](NC(=O)[C@@H](N)CCCCN)C(=O)N[C@@H](CCCCNC(=O)COCCOCCNC(=O)COCCOCCNC(=O)CCCCCCCCCCCCCCCCC(=O)O)C(=O)N[C@@H]([C@@H](C)O)C(=O)N[C@@H](C)C(=O)N[C@@H]([C@@H](C)O)C(=O)N1)[C@@H](C)O)C(C)C)C(=O)N[C@@H](CC(C)C)C(=O)N1CCC[C@H]1C(=O)N1CCC[C@H]1C(=O)N[C@H](C(=O)N[C@@H](CC(N)=O)C(=O)N[C@H](C(=O)NCC(=O)N[C@@H](CO)C(=O)N[C@@H](CC(N)=O)C(=O)N[C@H](C(=O)N[C@@H](Cc1ccc(O)cc1)C(N)=O)[C@@H](C)O)C(C)C)[C@@H](C)O` [Example 3, N-epsilon3-(2-{2-[2-(2-{2-[2-(17-carboxyheptadecanoylamino)ethoxy]ethoxy}acetylamino)ethoxy]ethoxy}acetyl)-[Lys3]-pramlintide (1-37)] (H-KCK([AEEA-AEEA-C18 diacid])TATCATQRLANFLVHSSNNFGPILPPTNVGSNTY-NH2; disulfide 2-7), for which, under setting [1], the EC50 turned out to be 0.1 nM.
Same read-out and setting: as for `CC[C@H](C)[C@H](NC(=O)[C@@H]1CCCN1C(=O)CNC(=O)[C@H](Cc1ccccc1)NC(=O)[C@H](CC(N)=O)NC(=O)[C@H](CC(N)=O)NC(=O)[C@H](CO)NC(=O)[C@H](CO)NC(=O)[C@H](Cc1c[nH]cn1)NC(=O)[C@@H](NC(=O)[C@H](CC(C)C)NC(=O)[C@H](Cc1ccccc1)NC(=O)[C@H](CC(N)=O)NC(=O)[C@H](C)NC(=O)[C@H](CC(C)C)NC(=O)[C@H](CCCNC(=N)N)NC(=O)[C@H](CCC(N)=O)NC(=O)[C@@H](NC(=O)[C@H](C)NC(=O)[C@@H]1CSSC[C@H](NC(=O)[C@@H](N)CCCCN)C(=O)N[C@@H](CC(N)=O)C(=O)N[C@@H]([C@@H](C)O)C(=O)N[C@@H](C)C(=O)N[C@@H]([C@@H](C)O)C(=O)N1)[C@@H](C)O)C(C)C)C(=O)N[C@@H](CC(C)C)C(=O)N1CCC[C@H]1C(=O)N[C@@H](CCCCNC(=O)COCCOCCNC(=O)COCCOCCNC(=O)CCCCCCCCCCCCCCCCCCC(=O)O)C(=O)N[C@H](C(=O)N[C@@H](CC(N)=O)C(=O)N[C@H](C(=O)NCC(=O)N[C@@H](CO)C(=O)N[C@@H](CC(N)=O)C(=O)N[C@H](C(=O)N[C@@H](Cc1ccc(O)cc1)C(N)=O)[C@@H](C)O)C(C)C)[C@@H](C)O` [Example 6, N-epsilon29-(2-{2-[2-(2-{2-[2-(19-carboxynonadecanoylamino)ethoxy]ethoxy}acetylamino)ethoxy]ethoxy}acetyl)-[Lys29]-pramlintide (1-37)] (H-KCNTATCATQRLANFLVHSSNNFGPILPK([AEEA-AEEA-C20 diacid])TNVGSNTY-NH2; disulfide 2-7; N-terminus and C-terminus assumed), the figure is 0.2 nM; as for `CC[C@H](C)[C@H](NC(=O)[C@@H]1CCCN1C(=O)CNC(=O)[C@H](Cc1ccccc1)NC(=O)[C@H](CC(N)=O)NC(=O)[C@H](CCCCNC(=O)COCCOCCNC(=O)COCCOCCNC(=O)CCCCCCCCCCCCCCCCCCC(=O)O)NC(=O)[C@H](CO)NC(=O)[C@H](CO)NC(=O)[C@H](Cc1c[nH]cn1)NC(=O)[C@@H](NC(=O)[C@H](CC(C)C)NC(=O)[C@H](Cc1ccccc1)NC(=O)[C@H](CC(N)=O)NC(=O)[C@H](C)NC(=O)[C@H](CC(C)C)NC(=O)[C@H](CCCNC(=N)N)NC(=O)[C@H](CCC(N)=O)NC(=O)[C@@H](NC(=O)[C@H](C)NC(=O)[C@@H]1CSSC[C@H](NC(=O)[C@@H](N)CCCCN)C(=O)N[C@@H](CC(N)=O)C(=O)N[C@@H]([C@@H](C)O)C(=O)N[C@@H](C)C(=O)N[C@@H]([C@@H](C)O)C(=O)N1)[C@@H](C)O)C(C)C)C(=O)N[C@@H](CC(C)C)C(=O)N1CCC[C@H]1C(=O)N1CCC[C@H]1C(=O)N[C@H](C(=O)N[C@@H](CC(N)=O)C(=O)N[C@H](C(=O)NCC(=O)N[C@@H](CO)C(=O)N[C@@H](CC(N)=O)C(=O)N[C@H](C(=O)N[C@@H](Cc1ccc(O)cc1)C(N)=O)[C@@H](C)O)C(C)C)[C@@H](C)O` [Example 7, N-epsilon2′-(2-{2-[2-(2-{2-[2-(19-carboxynonadecanoylamino)ethoxy]ethoxy}acetylamino)ethoxy]ethoxy}acetyl)-[Lys21]-pramlintide (1-37)] (H-KCNTATCATQRLANFLVHSSK([AEEA-AEEA-C20 diacid])NFGPILPPTNVGSNTY-NH2; disulfide 2-7; N-terminus and C-terminus assumed), 0.1 nM.
As for `CC[C@H](C)[C@H](NC(=O)[C@@H]1CCCN1C(=O)CNC(=O)[C@H](Cc1ccccc1)NC(=O)[C@H](CC(N)=O)NC(=O)[C@H](CC(N)=O)NC(=O)[C@H](CO)NC(=O)[C@H](CO)NC(=O)[C@H](Cc1c[nH]cn1)NC(=O)[C@H](CCCCNC(=O)COCCOCCNC(=O)COCCOCCNC(=O)CCCCCCCCCCCCCCCCCCC(=O)O)NC(=O)[C@H](CC(C)C)NC(=O)[C@H](Cc1ccccc1)NC(=O)[C@H](CC(N)=O)NC(=O)[C@H](C)NC(=O)[C@H](CC(C)C)NC(=O)[C@H](CCCNC(=N)N)NC(=O)[C@H](CCC(N)=O)NC(=O)[C@@H](NC(=O)[C@H](C)NC(=O)[C@@H]1CSSC[C@H](NC(=O)[C@@H](N)CCCCN)C(=O)N[C@@H](CC(N)=O)C(=O)N[C@@H]([C@@H](C)O)C(=O)N[C@@H](C)C(=O)N[C@@H]([C@@H](C)O)C(=O)N1)[C@@H](C)O)C(=O)N[C@@H](CC(C)C)C(=O)N1CCC[C@H]1C(=O)N1CCC[C@H]1C(=O)N[C@H](C(=O)N[C@@H](CC(N)=O)C(=O)N[C@H](C(=O)NCC(=O)N[C@@H](CO)C(=O)N[C@@H](CC(N)=O)C(=O)N[C@H](C(=O)N[C@@H](Cc1ccc(O)cc1)C(N)=O)[C@@H](C)O)C(C)C)[C@@H](C)O` [Example 8, N-epsilon17-(2-{2-[2-(2-{2-[2-(19-carboxynonadecanoylamino)ethoxy]ethoxy}acetylamino)ethoxy]ethoxy}acetyl)-[Lys17]-pramlintide (1-37)] (H-KCNTATCATQRLANFLK([AEEA-AEEA-C20 diacid])HSSNNFGPILPPTNVGSNTY-NH2; disulfide 2-7; N-terminus assumed), the EC50 was found to be 0.1 nM.

These data come from patent US20100222269A1, “IMPROVED DERIVATIVES OF AMYLIN” (priority 2007, published 2010).
